Assay results: paper PMC5556071, “ATR inhibition facilitates targeting of leukemia dependence on convergent nucleotide biosynthetic pathways” (Nature Communications, 2017)
Values joined by “and” are separate entries in the source; they are usually repeats but may differ in a detail not shown here. Equal entries are not always repeated.

System: CEM cells
Assay: Targeted LC-MS/MS-MRM of de novo and salvage dCTP biosynthesis (nucleotide pools and newly replicated DNA)
Assay type: cell-based, human
Set-up: key to Substrate utilization Glucose / Substrate utilization dC: ↓: partial decrease/inhibition; ↓↓↓: nearly complete inhibition; ↑: increase; ⟷: no change
Conditions: for % sum abundance, de novo DNA-C, mass increase in nucleobase +0, in deoxyribose +3 / % sum abundance, de novo DNA-C, mass increase in nucleobase +0, in deoxyribose +4 / % sum abundance, de novo DNA-C, mass increase in nucleobase +0, in deoxyribose +5 / % sum abundance, de novo DNA-C, mass increase in nucleobase +1, in deoxyribose +3 / % sum abundance, de novo DNA-C, mass increase in nucleobase +1, in deoxyribose +4 / % sum abundance, de novo DNA-C, mass increase in nucleobase +1, in deoxyribose +5 / % sum abundance, de novo DNA-C, mass increase in nucleobase +2, in deoxyribose +4 / % sum abundance, de novo DNA-C, mass increase in nucleobase +2, in deoxyribose +5 / % sum abundance, de novo DNA-C, mass increase in nucleobase +3, in deoxyribose +4 / % sum abundance, de novo DNA-C, mass increase in nucleobase +3, in deoxyribose +5 / % sum abundance, de novo DNA-C, mass increase in nucleobase +4, in deoxyribose +4 / % sum abundance, de novo DNA-C, mass increase in nucleobase +4, in deoxyribose +5 / % sum abundance, salvage DNA-C, mass increase in nucleobase +5, in deoxyribose +0 / % sum abundance, salvage DNA-C, mass increase in nucleobase +5, in deoxyribose +4 / % sum abundance, salvage DNA-C, mass increase in nucleobase +5, in deoxyribose +5 / % sum abundance, salvage DNA-C, mass increase in nucleobase +6, in deoxyribose +0 / % sum abundance, salvage DNA-C, mass increase in nucleobase +6, in deoxyribose +4 / % sum abundance, salvage DNA-C, mass increase in nucleobase +6, in deoxyribose +5 / % sum abundance, salvage DNA-C, mass increase in nucleobase +7, in deoxyribose +0 / % sum abundance, salvage DNA-C, mass increase in nucleobase +7, in deoxyribose +4 / % sum abundance, salvage DNA-C, mass increase in nucleobase +7, in deoxyribose +5 / % sum abundance, unlabeled DNA-C, mass increase in nucleobase +0, in deoxyribose +0 / % sum abundance, unlabeled DNA-C, mass increase in nucleobase +0, in deoxyribose +1 / % sum abundance, unlabeled DNA-C, mass increase in nucleobase +0, in deoxyribose +2 / % sum abundance, unlabeled DNA-C, mass increase in nucleobase +1, in deoxyribose +0 / % sum abundance, unlabeled DNA-C, mass increase in nucleobase +1, in deoxyribose +1 / % sum abundance, unlabeled DNA-C, mass increase in nucleobase +1, in deoxyribose +2 / % sum abundance, unlabeled DNA-C, mass increase in nucleobase +2, in deoxyribose +0 / % sum abundance, unlabeled DNA-C, mass increase in nucleobase +2, in deoxyribose +1 / % sum abundance, unlabeled DNA-C, mass increase in nucleobase +2, in deoxyribose +2 / % sum abundance, unlabeled DNA-C, mass increase in nucleobase +3, in deoxyribose +0 / % sum abundance, unlabeled DNA-C, mass increase in nucleobase +3, in deoxyribose +1 / % sum abundance, unlabeled DNA-C, mass increase in nucleobase +4, in deoxyribose +0: CEM 12 h, 1 uM VE-822, 1 uM DI-82, 500 nM 3-AP, #1-#3
Procedure: Cells were transferred into RPMI-1640 without glucose and supplemented with 10% dialyzed FBS (Gibco) containing the following labeled substrates: precursors for de novo [U-^13C6]glucose (Sigma-Aldrich, 389374) at 11 mM; precursors for purine salvage [U-^13C10,^15N5]dA (Cambridge Isotopes, CIL 3896), [^15N5]dA (Cambridge Isotopes, NLM-3895) and [^15N5]dG (Cambridge Isotopes, NLM-3899) at 5 µM or as indicated; and precursors for pyrimidine salvage: [U-^13C9,^15N3]dC (Silantes, 124603602) and [U-^13C10,^15N2]dT (Cambridge Isotopes, CNLM-3902) at 5 µM and [^15N2]orotate (Cambridge Isotopes, NLM-1048) at indicated concentrations. The cells were incubated for 12 h or as indicated before sample collection and processing.
The rates of dCTP incorporation into the DNA were determined using linear regression with procedure GLM in SAS (v. 9.4). DNA % label was transformed using a shifted log addition of 1 due to the presence of zeros in the data set. Rates were calculated using the slope of the regression line for the log transformed data and are presented in the table with the associated standard errors, along with the ratio between the rate of incorporation into DNA by the de novo and salvage pathways (Table 1).
Cell cycle synchronization. Cells were treated with a CDK4/6 inhibitor, Pablociclib or PD-0332991 (Selleckchem, S1116) for 18 h to synchronize them in the G1 phase. Subsequently, cells were washed twice with PBS containing 2% FBS (Omega Scientific) and released into fresh media. […]
Clinical Microarray Core on an Illumina HiSeq3000 using the SeqCap EZ Exome Enrichment Kit v3.0 (Roche).
Reads were mapped to UCSC hg19 (bwa-mem), deduplicaed (PicardTools), and subjected to base quality score recalibration and realignment around known indels according to the Broad Institute Genome Analysis Toolkit (GATK) Best Practices v3.0. Variants in genes associated with nucleotide biosynthesis were identified using the GATK HaplotypeCaller, and annotated with Oncotator (http://portals.broadinstitute.org/oncotator/). dNTP sample processing. 0.5 – 1 x 10^6 cells were collected into 1.5 mL microcentrifuge tubes and centrifuged (450 x g, 4 min, 4 °C). The supernatant was carefully aspirated and the cells were washed twice with 1 mL of cold PBS, followed each time by centrifugation (450 x g, 4 min 4 °C). The PBS were aspirated.
Thereafter, the pellets were treated with 10 µL of 10% trifluoroacetic acid with internal standards (1 µM […]
s, and incubated on ice for 10 min. 40 µL of 500 mM ammonium acetate, pH = 9.3, with the same internal standard (1 µM [15N3]dCMP and [15N3]dCTP) was then added and the samples were vigorously vortexed again for 30 s. The samples were centrifuged (14,000 x g, 10 min, 4 °C) to remove cell debris. The supernatants (~ 40 µL) were transferred into HPLC injector vials. Stock solutions (10 mM) of rCTP, rCDP, dCMP, dCDP, and dCTP (Sigma Aldrich) were prepared individually in water, and stored at –20 °C before use to generate calibration standards. Calibration standards were prepared and mixed together in water with internal standards (1 µM [15N3]dCMP and [15N3]dCTP) to make working stock concentrations in 100 nM – 100 µM range.
Calibration standards were diluted 10-fold into the same nucleotide extraction solution of 10% TFA/500 mM ammonium acetate (1:4, v/v) with internal standards (1 µM [15N3]dCMP and [15N3]dCTP) to give a final concentration in 10 nM – 10 µM. Nucleotide and calibration samples were processed together to minimize […]
DNA sample processing. Genomic DNA from 0.5 – 1 x 10^4 cells was extracted using the Quick-gDNA MiniPrep kit (Zymo Research, D3021) and hydrolyzed to nucleosides using the DNA Degradase Plus kit (Zymo Research, E2021), following manufacturer-supplied instructions. In the final step of DNA extraction, 50 µL of […]
water was used to elute the DNA into 1.5 mL microcentrifuge tubes. A nuclease solution (5 µL; 10X buffer/DNA Degradase Plus™/water, 2.5/1/1.5, v/v/v) was added to 20 µL of the eluted genomic DNA in an HPLC injector […]
vial. […]

[1] = CEM after release from G1 arrest

SMILES	% sum abundance, de novo DNA-C, mass increase in nucleobase +0, in deoxyribose +3	% sum abundance, de novo DNA-C, mass increase in nucleobase +0, in deoxyribose +4	% sum abundance, de novo DNA-C, mass increase in nucleobase +0, in deoxyribose +5	% sum abundance, de novo DNA-C, mass increase in nucleobase +1, in deoxyribose +3 [%]	% sum abundance, de novo DNA-C, mass increase in nucleobase +1, in deoxyribose +4	% sum abundance, de novo DNA-C, mass increase in nucleobase +1, in deoxyribose +5	% sum abundance, de novo DNA-C, mass increase in nucleobase +2, in deoxyribose +4	% sum abundance, de novo DNA-C, mass increase in nucleobase +2, in deoxyribose +5	% sum abundance, de novo DNA-C, mass increase in nucleobase +3, in deoxyribose +4 [%]	% sum abundance, de novo DNA-C, mass increase in nucleobase +3, in deoxyribose +5	% sum abundance, de novo DNA-C, mass increase in nucleobase +4, in deoxyribose +4 [%]	% sum abundance, de novo DNA-C, mass increase in nucleobase +4, in deoxyribose +5 [%]	% sum abundance, salvage DNA-C, mass increase in nucleobase +5, in deoxyribose +0 [%]	% sum abundance, salvage DNA-C, mass increase in nucleobase +5, in deoxyribose +4 [%]	% sum abundance, salvage DNA-C, mass increase in nucleobase +5, in deoxyribose +5 [%]	% sum abundance, salvage DNA-C, mass increase in nucleobase +6, in deoxyribose +0 [%]	% sum abundance, salvage DNA-C, mass increase in nucleobase +6, in deoxyribose +4 [%]	% sum abundance, salvage DNA-C, mass increase in nucleobase +6, in deoxyribose +5	% sum abundance, salvage DNA-C, mass increase in nucleobase +7, in deoxyribose +0 [%]	% sum abundance, salvage DNA-C, mass increase in nucleobase +7, in deoxyribose +4	also measured
COc1ccc(-c2nc([C@@H](C)Sc3nc(N)cc(N)n3)c(C)s2)cc1OCCNS(C)(=O)=O [dCKi]	0.18% and 0.19%	0.58% and 0.55%	9.50% and 9.45% and 9.86%	0.00	0.09% and 0.07%	1.18% and 1.24%	0.053% and 0.05%	0.82% and 0.79% and 0.87%	0.00	0.20% and 0.19%	0.00	0.00	0.00	0.00	0.00	0.00	0.00	0.00%	0.00	0.00%	reduction of the amount of free dCTP (12 h time point after release from G1 arrest): ~ 50%; % sum abundance, salvage DNA-C, mass increase in nucleobase +7, in deoxyribose +5: 0.07% and 0.09% and 0.0853%; % sum abundance, unlabeled DNA-C, mass increase in nucleobase +0, in deoxyribose +0: 77.58% and 77.11% and 77.29%; % sum abundance, unlabeled DNA-C, mass increase in nucleobase +0, in deoxyribose +1: 4.40% and 4.55% and 4.26%; % sum abundance, unlabeled DNA-C, mass increase in nucleobase +0, in deoxyribose +2: 0.75% and 0.68% and 0.59%; % sum abundance, unlabeled DNA-C, mass increase in nucleobase +1, in deoxyribose +0: 4.14% and 4.45% and 4.26%; % sum abundance, unlabeled DNA-C, mass increase in nucleobase +1, in deoxyribose +1: 0.23% and 0.29% and 0.22%; % sum abundance, unlabeled DNA-C, mass increase in nucleobase +1, in deoxyribose +2: 0.00%; % sum abundance, unlabeled DNA-C, mass increase in nucleobase +2, in deoxyribose +0: 0.23% and 0.31% and 0.29%; % sum abundance, unlabeled DNA-C, mass increase in nucleobase +2, in deoxyribose +1: 0.00%; % sum abundance, unlabeled DNA-C, mass increase in nucleobase +2, in deoxyribose +2: 0.00%; % sum abundance, unlabeled DNA-C, mass increase in nucleobase +3, in deoxyribose +0: 0.00%; % sum abundance, unlabeled DNA-C, mass increase in nucleobase +3, in deoxyribose +1: 0.00%; % sum abundance, unlabeled DNA-C, mass increase in nucleobase +4, in deoxyribose +0: 0.00%; De novo: rate of dCTP incorporation into newly replicated DNA (slope ± standard error of regression line) [1]: 0.23 ± 0.01 arbitrary unit; Ratio (salvage/de novo) [1]: 0.082; Salvage: rate of dCTP incorporation into newly replicated DNA (slope ± standard error of regression line) [1]: 0.019 ± 0.004 arbitrary unit; reduction of dCK activity (contribution of labeled [13C9,15N3]dC to intracellular dCMP) (asynchronous CEM, 12 h): ~ 90%; Substrate utilization Glucose (summary Fig. 2g, CEM cells): ↑; Substrate utilization dC (summary Fig. 2g, CEM cells): ↓↓↓
NC(=S)N/N=C/c1ncccc1N [3-AP]	0.0554% and 0.0456% and 0.04%	0.02% and 0.0358% and 0.0465%	0.55% and 0.53% and 0.50%	0.00	0.00%	0.07% and 0.0542% and 0.0459%	0.00%	0.0465% and 0.04% and 0.032%	0.00	0.00%	0.00	0.00	0.00	0.00	0.00	0.00	0.00	0.39% and 0.40%	0.00	0.23% and 0.25%	% sum abundance, salvage DNA-C, mass increase in nucleobase +7, in deoxyribose +5: 4.69% and 4.96% and 4.68%; % sum abundance, unlabeled DNA-C, mass increase in nucleobase +0, in deoxyribose +0: 83.63% and 83.39% and 83.92%; % sum abundance, unlabeled DNA-C, mass increase in nucleobase +0, in deoxyribose +1: 4.68% and 4.72% and 4.61%; % sum abundance, unlabeled DNA-C, mass increase in nucleobase +0, in deoxyribose +2: 0.67% and 0.60% and 0.58%; % sum abundance, unlabeled DNA-C, mass increase in nucleobase +1, in deoxyribose +0: 4.40% and 4.42% and 4.39%; % sum abundance, unlabeled DNA-C, mass increase in nucleobase +1, in deoxyribose +1: 0.26%; % sum abundance, unlabeled DNA-C, mass increase in nucleobase +1, in deoxyribose +2: 0.00%; % sum abundance, unlabeled DNA-C, mass increase in nucleobase +2, in deoxyribose +0: 0.31% and 0.29% and 0.26%; % sum abundance, unlabeled DNA-C, mass increase in nucleobase +2, in deoxyribose +1: 0.00%; % sum abundance, unlabeled DNA-C, mass increase in nucleobase +2, in deoxyribose +2: 0.00%; % sum abundance, unlabeled DNA-C, mass increase in nucleobase +3, in deoxyribose +0: 0.00%; % sum abundance, unlabeled DNA-C, mass increase in nucleobase +3, in deoxyribose +1: 0.00%; % sum abundance, unlabeled DNA-C, mass increase in nucleobase +4, in deoxyribose +0: 0.00%; increase of incorporation of salvage-produced dCTP into DNA (CEM, 500 nM 3-AP, 12 h): > 1.5 fold; rCTP and rCDP pools (CEM, 500 nM 3-AP, 12 h): doubled; reduction in the incorporation of de novo produced dCTP into DNA (CEM, 500 nM 3-AP, 12 h): ~ 19 fold; salvage dC nucleotide pools (CEM, 500 nM 3-AP, 12 h): doubled; increase of salvage contributions to the dCMP, dCDP and dCTP pools (asynchronous CEM, 12 h): approximately twofold
